The values below come from PMC3192245 (Proteins, 2011).

For the test, the target named is AtOPR3 (Arabidopsis thaliana, UniProt Q9FUP0). As to the kind of experiment: X-ray crystal structure, […] Å. The following applies: ternary complex with 8-iso PGA1; one FMN per monomer. In kind it is binding.
Sequence of AtOPR3 (Q9FUP0 whole entry): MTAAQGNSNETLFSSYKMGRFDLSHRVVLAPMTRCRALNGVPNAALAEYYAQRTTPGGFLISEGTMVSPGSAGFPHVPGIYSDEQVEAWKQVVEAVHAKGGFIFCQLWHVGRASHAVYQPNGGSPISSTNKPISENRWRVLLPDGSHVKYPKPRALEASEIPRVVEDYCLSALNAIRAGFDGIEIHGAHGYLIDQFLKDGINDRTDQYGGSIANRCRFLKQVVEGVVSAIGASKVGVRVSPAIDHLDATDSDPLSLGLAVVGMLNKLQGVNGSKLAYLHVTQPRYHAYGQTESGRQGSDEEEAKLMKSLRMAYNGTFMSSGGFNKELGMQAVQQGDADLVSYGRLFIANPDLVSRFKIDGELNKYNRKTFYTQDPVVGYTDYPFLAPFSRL

For the molecule `Cc1cc2nc3c(=O)[nH]c(=O)nc-3n(C[C@H](O)[C@H](O)[C@H](O)COP(=O)(O)O)c2cc1C` [FMN], the “X-ray crystal structure, 2.6 Å” value is “each AtOPR3 monomer contains one FMN and one 8-iso PGA1 molecule”.
